Structures can show the parent of a compound that is named as a salt. Where two headings read alike, the source gives them in different places.
Tests used:
[1] = Anorectic effect in mice; assay type: in vivo, mouse (ICR); conditions: 50 mg/kg oral gavage, control = 100
Protocol: (a) Anorectic effect in mice
ICR mice, male and aged seven weeks (in groups of six individuals), which had been acclimatized to 6-hour/day feeding (CE-2 powder, commercial product of Clea Japan Ltd., Tokyo, Japan) for seven days were administered a dosage, by oral gavage, with a solution of 50 mg/kg of each test compound in 5% gum arabic at 0.5 hour before feeding on the eighth day, and the food intakes were compared with those of control mice given 5% gum arabic only. Each figure in the table is the percent food intake, with the corresponding figure for the control being 100.

[2] = test system: insulin secretion; test: Suppression of insulin secretion (insulin area after glucose loading); assay type: in vivo, rat (Fatty rats); conditions: 50 mg/kg oral; glucose 3 g/kg after 30 minutes; blood at 30, 60 and 120 minutes; control 739
Protocol: (d) Suppression of insulin secretion
Fatty rats, female and aged 14 weeks, were used after fasting for 24 hours. The rats (in groups of five individuals) were orally dosed with a solution of 50 mg/kg of erythro-(I) hydrochloride in 5% gum arabic and, after 30 minutes, glucose (3 g/kg) was orally administered. At 30, 60 and 120 minutes after glucose loading, blood was withdrawn. The plasma samples were assayed for insulin and the insulin area was calculated.

[3] = Anorectic effect in rats; assay type: in vivo, rat (Sprague-Dawley); conditions: Rattus norvegicus, oral gavage, 50% inhibition of food intake
Protocol: (b) Anorectic effect in rats
Sprague-Dawley (SD) rats, male and aged seven weeks, fasted for 24 hours (in groups of six individuals) were dosed, by oral gavage, with a solution of each test compound in 5% gum arabic, and feeding (CE-2 powder) was started at 0.5 hour after administration. The dose (ED50) which caused a 50% inhibition of food intake as compared with the control dosed with 5% gum arabic was determined.

[4] = test system: biosynthesis of fatty acid; test: Suppression of biosynthesis of fatty acid (incorporation of glucose-U-14C into liver and epididymal adipose tissue lipids); assay type: in vivo, rat (SD); conditions: Rattus norvegicus, 1 h, oral, 50% inhibition of glucose-U-14C incorporation, 60 minutes after glucose
Protocol: (c) Suppression of biosynthesis of fatty acid
Male SD rats fasted for 24 hours, were orally dosed with erythro-(I) hydrochloride and after a lapse of 30 minutes, glucose-U-^14 C (140 μCi/2 g/kg) was orally administered. The animals were sacrificed after 60 minutes and the amounts of incorporation of glucose-U-^14 C into the liver and the epididymal adipose tissue lipids were determined to calculate the dose (ED50) which caused a 50% inhibition of glucose-U-^14 C incorporation, as compared to control rats, which had fasted, had not been so dosed, and had been orally administered with glucose-U-^14 C (140μCi/2 g/kg).

[5] = Estimation of LD50 in mice; parameters: species or system mouse (ICR); conditions: mouse, in vivo; oral; kept for seven days; Probit analysis
Protocol: (e) Estimation of LD50 in mice
ICR mice, male and aged nine weeks, were used without fasting. The mice (in groups of six individuals) were orally dosed with a solution of erythro-(I) hydrochloride (333, 500 and 750 mg/kg) or erythro-(VIII) hydrochloride (750, 1100 and 1700 mg/kg) in 5% gum arabic and kept for seven days. LD50 was calculated using the Probit analysis.

[6] = in vivo
[7] = Antiobesity action (general statement); assay type: in vivo; conditions: compared with (VII)
[8] = Toxicity (general statement); conditions: in vivo
[9] = 0.5 hour, read-out: ED50 0.5 hour after administration
[10] = 1 hour, read-out: ED50 1 hour after administration
[11] = 2 hours, read-out: ED50 2 hours after administration

SMILES	Food intake (%) 0.5 hour after administration [1]	Food intake (%) 1 hour after administration [1]	Food intake (%) 2 hours after administration [1]	Insulin area [2]	ED50 [3, 9]	ED50 [3, 10]	ED50 [3, 11]	ED50 ([4]; epididymal adipose tissue lipids, read-out: Epididymal adipose tissue: ED50)	ED50 ([4]; liver lipids, read-out: Liver: ED50)	LD50 at 168 h [5]	absorbability on oral administration [6]	antiobesity action [7]	toxicity [8]
O[C@@H](c1cccc(C(F)(F)F)c1)[C@H]1CCN1 (relative stereo) [Erythro-(I) hydrochloride, erythro-2-(α-hydroxy-m-trifluoromethylbenzyl)azetidine hydrochloride]	44.0%	50.6%	67.0%	51 μU/ml.hr	20 mg/kg	20 mg/kg	25 mg/kg	20 mg/kg	20 mg/kg	499 mg/kg	–	–	–
O[C@@H](c1ccccc1)[C@H]1CCN1 (relative stereo) [Erythro-(VII) hydrochloride, 2-(α-hydroxybenzyl)azetidine, reference compound]	–	–	–	–	35 mg/kg	50 mg/kg	300 mg/kg	–	–	902 mg/kg	–	–	–
O[C@@H](c1cccc(C(F)(F)F)c1)[C@@H]1CCN1 (relative stereo) [Threo-(I) hydrochloride, Threo-2-(α-hydroxy-m-trifluoromethylbenzyl)azetidine hydrochloride]	55.0%	72.0%	84.8%	–	–	–	–	–	–	–	–	–	–
O[C@@H](c1ccccc1)[C@@H]1CCN1 (relative stereo) [Threo-(VII) hydrochloride, 2-(α-hydroxybenzyl)azetidine, reference compound]	70.0%	89.3%	98.3%	–	–	–	–	–	–	–	–	–	–
OC(c1cccc(C(F)(F)F)c1)C1CCN1 (stereo not drawn) [Compound (I), 2-(α-hydroxy-m-trifluoromethylbenzyl)azetidine]	–	–	–	–	–	–	–	–	–	–	good absorbability on oral administration	very potent and long lasting antiobesity action, surpassing the action of (VII)	low toxicity
